Measured values reported in publication PMC6346292 (Chemical Science, 2018).

How the values were obtained:
BMP-2 = target: T1, BMP-2 (Homo sapiens, UniProt P12643); test: FP competition assay; type: binding; conditions: FP competition with probe 15 (table footnote)
T1 sequence (P12643 283-396): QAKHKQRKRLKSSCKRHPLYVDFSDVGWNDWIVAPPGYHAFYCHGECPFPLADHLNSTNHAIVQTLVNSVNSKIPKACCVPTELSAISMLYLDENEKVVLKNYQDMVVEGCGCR

Sclerostin = target: T2, Sclerostin (Homo sapiens, UniProt Q9BQB4); test: FP competition assay; type: binding; conditions: FP competition with probe 15 (table footnote)
T2 sequence (Q9BQB4 24-213): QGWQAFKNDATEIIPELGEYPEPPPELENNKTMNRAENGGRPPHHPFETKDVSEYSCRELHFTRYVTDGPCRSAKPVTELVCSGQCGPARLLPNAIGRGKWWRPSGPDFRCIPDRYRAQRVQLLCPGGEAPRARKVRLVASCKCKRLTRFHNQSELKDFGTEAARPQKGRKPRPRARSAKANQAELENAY

[1] = tested on: antithrombine III (AT-III); conditions: cited from earlier work
IL-8 = target: T3, IL-8 (Homo sapiens, UniProt P10145); test: FP competition assay; type: binding; conditions: FP competition with probe 15 (table footnote)
T3 sequence (P10145 21-99): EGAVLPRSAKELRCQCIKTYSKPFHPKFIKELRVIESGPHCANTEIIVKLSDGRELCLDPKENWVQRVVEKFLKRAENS

## CO[C@H]1O[C@H](COS(=O)(=O)O)[C@@H](O[C@@H]2O[C@@H](C(=O)O)[C@@H](O[C@H]3O[C@H](COS(=O)(=O)O)[C@@H](O[C@@H]4O[C@H](C(=O)O)[C@@H](O[C@H]5O[C@H](COS(=O)(=O)O)[C@@H](O)[C@H](O)[C@H]5NS(=O)(=O)O)[C@H](O)[C@H]4O)[C@H](OS(=O)(=O)O)[C@H]3NS(=O)(=O)O)[C@H](O)[C@H]2OS(=O)(=O)O)[C@H](O)[C@H]1NS(=O)(=O)O [Fondaparinux, fondaparinux]
BMP-2
  Kd: 80.9 ± 8.5 µM
Sclerostin
  Kd: 629 ± 335 µM
[1]
  ligand affinity class: nanomolar ligand
IL-8
  Kd: 19 ± 2.5 µM
